Measurements taken from ChEMBL document CHEMBL5696444 (Nat Commun, 2017).
The source made the active and inactive calls. The rule behind the calls is not given here.

Legend:
[1] = target: Casein kinase I isoform delta (Homo sapiens) (UniProt P48730); assay: Inhibition of CSNK1D (unknown origin) at 1000 nM in the presence of ATP by Kinome scan method relative to control
[2] = test system: HCT-116; assay: Induction of cell cycle arrest in human HCT-116 cells assessed as G0/G1 phase at 0.5 uM incubated for 6 hrs by flow cytometry analysis (Rvb=35.0%); assay type: functional
[3] = target: Dual specificity protein kinase CLK3 (Homo sapiens) (UniProt P49761); assay: Inhibition of CLK3 (unknown origin) at 123 nM in the presence of ATP by Kinome scan method relative to control; details: time > 6.0 hrs
[4] = test system: HCT-116; assay: Induction of cell cycle arrest in human HCT-116 cells assessed as S phase at 0.1 uM incubated for 6 hrs by flow cytometry analysis (Rvb=39.3%); assay type: functional
[5] = target: Proto-oncogene tyrosine-protein kinase Src (Homo sapiens) (UniProt P12931); assay: Inhibition of SRC (unknown origin) at 1000 nM in the presence of ATP by Kinome scan method relative to control
[6] = target: Serine/threonine-protein kinase mTOR (Homo sapiens) (UniProt P42345); assay: Inhibition of FRAP1 (unknown origin) at 100 nM in the presence of ATP by Kinome scan method relative to control
[7] = target: Serine/threonine-protein kinase Nek1 (Homo sapiens) (UniProt Q96PY6); assay: Inhibition of NEK1 (unknown origin) at 100 nM in the presence of ATP by Kinome scan method relative to control
[8] = target: CDK7/Cyclin H/MNAT1 (Homo sapiens) (UniProt P51946+P50613+P51948); assay: Inhibition of CDK7/cyclin H/MNAT1 (unknown origin) at 1000 nM in the presence of ATP by Kinome scan method relative to control; assay type: protein-complex assay
[9] = target: Homeodomain-interacting protein kinase 1 (Homo sapiens) (UniProt Q86Z02); assay: Inhibition of HIPK1 (unknown origin) at 100 nM in the presence of ATP by Kinome scan method relative to control
[10] = target: Proto-oncogene tyrosine-protein kinase receptor Ret (Homo sapiens) (UniProt P07949); assay: Inhibition of RET (unknown origin) at 1000 nM in the presence of ATP by Kinome scan method relative to control
[11] = test system: HCT-116; assay: Induction of cell cycle arrest in human HCT-116 cells assessed as G0/G1 phase at 0.1 uM incubated for 6 hrs by flow cytometry analysis (Rvb=35.0%); assay type: functional
[12] = target: Calcium/calmodulin-dependent protein kinase type 1 (Homo sapiens) (UniProt Q14012); assay: Inhibition of CAMK1 (unknown origin) at 100 nM in the presence of ATP by Kinome scan method relative to control
[13] = target: Dual specificity mitogen-activated protein kinase kinase 1 (Homo sapiens) (UniProt Q02750); assay: Inhibition of MAP2K1 (unknown origin) at 1000 nM in the presence of ATP by Kinome scan method relative to control
[14] = test system: HCT-116; assay: Induction of apoptosis in human HCT-116 cells assessed as early apoptosis at 5 uM incubated for > 6 hrs by annexin V/PI staining based analysis (Rvb=3.29%); assay type: functional
[15] = Stability of compound in tissue culture medium assessed as remaining parent compound at 5.30 uM incubated for 48 hrs; assay type: physicochemical; details: read-out: Stability
[16] = target: Dual specificity mitogen-activated protein kinase kinase 2 (Homo sapiens) (UniProt P36507); assay: Inhibition of MAP2K2 (unknown origin) at 1000 nM in the presence of ATP by Kinome scan method relative to control
[17] = target: Mitogen-activated protein kinase 14 (Homo sapiens) (UniProt Q16539); assay: Inhibition of MAPK14 (unknown origin) at 1000 nM in the presence of ATP by Kinome scan method relative to control
[18] = test system: HCT-116; assay: Induction of apoptosis in human HCT-116 cells assessed as late apoptosis at 10 uM incubated for > 6 hrs by annexin V/PI staining based analysis (Rvb=6.12%); assay type: functional
[19] = target: Ephrin type-B receptor 1 (Homo sapiens) (UniProt P54762); assay: Inhibition of EPHB1 (unknown origin) at 100 nM in the presence of ATP by Kinome scan method relative to control
[20] = test system: HCT-116; assay: Induction of cell cycle arrest in human HCT-116 cells assessed as G2/M phase at 0.1 uM incubated for 6 hrs by flow cytometry analysis (Rvb=25.8%); assay type: functional
[21] = test system: HCT-116; assay: Induction of apoptosis in human HCT-116 cells assessed as viable cells at 5 uM incubated for > 6 hrs by annexin V/PI staining based analysis (Rvb=90.04%); assay type: functional; details: read-out: Activity
[22] = target: Serine/threonine-protein kinase PLK1 (Homo sapiens) (UniProt P53350); assay: Inhibition of PLK1 (unknown origin) at 1000 nM in the presence of ATP by Kinome scan method relative to control
[23] = test system: HCT-116; assay: Induction of cell cycle arrest in human HCT-116 cells assessed as G0/G1 phase at 1 uM incubated for 6 hrs by flow cytometry analysis (Rvb=35.0%); assay type: functional
[24] = target: Homeodomain-interacting protein kinase 2 (Homo sapiens) (UniProt Q9H2X6); assay: Inhibition of HIPK2 (unknown origin) at 100 nM in the presence of ATP by Kinome scan method relative to control
[25] = target: Ephrin type-B receptor 1 (Homo sapiens) (UniProt P54762); assay: Inhibition of EPHB1 (unknown origin) at 1000 nM in the presence of ATP by Kinome scan method relative to control
[26] = target: Proto-oncogene tyrosine-protein kinase receptor Ret (Homo sapiens) (UniProt P07949); assay: Inhibition of RET (unknown origin) at 100 nM in the presence of ATP by Kinome scan method relative to control
[27] = target: Serine/threonine-protein kinase Chk1 (Homo sapiens) (UniProt O14757); assay: Inhibition of CHEK1 (unknown origin) at 1000 nM in the presence of ATP by Kinome scan method relative to control
[28] = target: Serine/threonine-protein kinase B-raf (Homo sapiens) (UniProt P15056); assay: Inhibition of BRAF (unknown origin) at 100 nM in the presence of ATP by Kinome scan method relative to control
[29] = target: Ephrin type-A receptor 1 (Homo sapiens) (UniProt P21709); assay: Inhibition of EPHA1 (unknown origin) at 1000 nM in the presence of ATP by Kinome scan method relative to control
[30] = target: Rho-associated protein kinase 1 (Homo sapiens) (UniProt Q13464); assay: Inhibition of ROCK1 (unknown origin) at 100 nM in the presence of ATP by Kinome scan method relative to control
[31] = target: Dual specificity protein kinase CLK1 (Homo sapiens) (UniProt P49759); assay: Inhibition of CLK (unknown origin) in human HCT-116 cells assessed as decrease in SRSF6 phosphorylation level at 0.5 to 1.0 uM incubated for 6 hrs by immunoblot analysis; assay type: cell-based; details: dose 0.5-1 µM
[32] = target: RAC-alpha serine/threonine-protein kinase (Homo sapiens) (UniProt P31749); assay: Inhibition of AKT1 (unknown origin) at 100 nM in the presence of ATP by Kinome scan method relative to control
[33] = Stability of compound in tissue culture medium assessed as remaining parent compound at 5.44 uM incubated for 6 hrs; assay type: physicochemical; details: read-out: Stability

Sequence of Proto-oncogene tyrosine-protein kinase receptor Ret (Homo sapiens) (P07949 whole entry): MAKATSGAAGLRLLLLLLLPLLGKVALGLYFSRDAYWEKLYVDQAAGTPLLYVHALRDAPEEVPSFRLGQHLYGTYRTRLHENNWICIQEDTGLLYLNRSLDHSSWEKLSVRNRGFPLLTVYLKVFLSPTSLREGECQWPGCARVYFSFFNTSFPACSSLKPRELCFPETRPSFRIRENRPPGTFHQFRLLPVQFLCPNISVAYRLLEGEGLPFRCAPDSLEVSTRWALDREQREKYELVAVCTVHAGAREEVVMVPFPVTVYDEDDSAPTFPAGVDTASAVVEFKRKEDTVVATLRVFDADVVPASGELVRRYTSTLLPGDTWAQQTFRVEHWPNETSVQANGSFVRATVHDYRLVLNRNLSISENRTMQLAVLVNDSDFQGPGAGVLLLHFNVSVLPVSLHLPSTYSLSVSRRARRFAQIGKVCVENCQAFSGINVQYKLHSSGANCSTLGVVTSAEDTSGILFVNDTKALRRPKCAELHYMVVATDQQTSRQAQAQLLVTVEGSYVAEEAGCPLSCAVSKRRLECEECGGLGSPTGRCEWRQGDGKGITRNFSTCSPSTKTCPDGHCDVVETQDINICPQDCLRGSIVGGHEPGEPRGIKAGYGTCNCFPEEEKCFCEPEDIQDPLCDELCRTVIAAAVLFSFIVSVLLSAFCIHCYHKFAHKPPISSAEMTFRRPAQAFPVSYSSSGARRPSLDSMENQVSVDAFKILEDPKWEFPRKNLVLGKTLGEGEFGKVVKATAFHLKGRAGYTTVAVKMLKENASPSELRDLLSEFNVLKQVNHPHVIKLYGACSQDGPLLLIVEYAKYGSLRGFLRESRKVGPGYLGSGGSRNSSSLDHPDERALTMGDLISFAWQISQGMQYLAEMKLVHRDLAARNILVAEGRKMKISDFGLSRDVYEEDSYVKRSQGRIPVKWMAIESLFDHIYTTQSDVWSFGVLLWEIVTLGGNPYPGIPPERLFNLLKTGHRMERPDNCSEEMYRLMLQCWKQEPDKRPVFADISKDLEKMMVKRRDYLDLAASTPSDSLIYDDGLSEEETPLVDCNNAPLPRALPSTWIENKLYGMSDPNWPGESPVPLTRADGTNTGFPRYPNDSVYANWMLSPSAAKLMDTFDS
Sequence of Ephrin type-B receptor 1 (Homo sapiens) (P54762 whole entry): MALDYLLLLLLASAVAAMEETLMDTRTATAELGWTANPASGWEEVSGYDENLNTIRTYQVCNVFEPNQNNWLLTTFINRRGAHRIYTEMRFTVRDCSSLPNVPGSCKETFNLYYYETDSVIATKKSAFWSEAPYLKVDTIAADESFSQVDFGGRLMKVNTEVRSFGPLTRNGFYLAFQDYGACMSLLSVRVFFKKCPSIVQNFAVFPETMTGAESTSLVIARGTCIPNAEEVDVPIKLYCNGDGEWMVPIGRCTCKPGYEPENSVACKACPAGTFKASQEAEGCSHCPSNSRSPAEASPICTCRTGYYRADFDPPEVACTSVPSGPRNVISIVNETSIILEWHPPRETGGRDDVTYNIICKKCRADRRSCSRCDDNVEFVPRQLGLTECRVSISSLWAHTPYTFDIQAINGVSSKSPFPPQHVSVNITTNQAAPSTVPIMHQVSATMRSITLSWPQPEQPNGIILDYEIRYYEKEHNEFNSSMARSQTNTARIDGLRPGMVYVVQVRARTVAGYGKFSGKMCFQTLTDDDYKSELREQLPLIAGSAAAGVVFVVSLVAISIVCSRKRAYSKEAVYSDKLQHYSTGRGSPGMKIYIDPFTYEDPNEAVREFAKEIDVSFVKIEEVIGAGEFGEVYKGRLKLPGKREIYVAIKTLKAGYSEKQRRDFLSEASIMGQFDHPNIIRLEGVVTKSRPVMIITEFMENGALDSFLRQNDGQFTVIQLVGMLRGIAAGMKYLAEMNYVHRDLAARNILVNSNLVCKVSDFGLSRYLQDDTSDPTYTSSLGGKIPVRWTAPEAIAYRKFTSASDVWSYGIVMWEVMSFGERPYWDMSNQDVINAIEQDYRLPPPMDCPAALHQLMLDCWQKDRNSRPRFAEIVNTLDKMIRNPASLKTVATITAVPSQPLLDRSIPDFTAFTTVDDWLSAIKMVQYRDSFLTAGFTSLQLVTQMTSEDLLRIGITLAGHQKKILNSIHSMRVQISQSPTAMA
Sequence of Serine/threonine-protein kinase PLK1 (Homo sapiens) (P53350 whole entry): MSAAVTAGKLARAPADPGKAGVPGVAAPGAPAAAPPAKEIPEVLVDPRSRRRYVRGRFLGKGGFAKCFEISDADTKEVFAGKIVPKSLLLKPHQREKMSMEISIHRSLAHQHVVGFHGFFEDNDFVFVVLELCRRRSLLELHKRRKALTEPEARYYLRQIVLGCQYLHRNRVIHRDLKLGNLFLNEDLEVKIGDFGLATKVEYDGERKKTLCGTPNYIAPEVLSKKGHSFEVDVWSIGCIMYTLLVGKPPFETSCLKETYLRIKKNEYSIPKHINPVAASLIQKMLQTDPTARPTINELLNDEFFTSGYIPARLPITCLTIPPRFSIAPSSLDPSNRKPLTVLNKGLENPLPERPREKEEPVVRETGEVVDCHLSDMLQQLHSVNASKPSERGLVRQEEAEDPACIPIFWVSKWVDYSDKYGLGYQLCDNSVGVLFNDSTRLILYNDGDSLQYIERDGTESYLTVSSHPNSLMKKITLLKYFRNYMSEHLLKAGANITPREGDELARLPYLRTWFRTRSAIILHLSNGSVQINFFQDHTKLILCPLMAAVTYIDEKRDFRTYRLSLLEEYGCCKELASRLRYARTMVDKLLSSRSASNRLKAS
Sequence of Mitogen-activated protein kinase 14 (Homo sapiens) (Q16539 whole entry): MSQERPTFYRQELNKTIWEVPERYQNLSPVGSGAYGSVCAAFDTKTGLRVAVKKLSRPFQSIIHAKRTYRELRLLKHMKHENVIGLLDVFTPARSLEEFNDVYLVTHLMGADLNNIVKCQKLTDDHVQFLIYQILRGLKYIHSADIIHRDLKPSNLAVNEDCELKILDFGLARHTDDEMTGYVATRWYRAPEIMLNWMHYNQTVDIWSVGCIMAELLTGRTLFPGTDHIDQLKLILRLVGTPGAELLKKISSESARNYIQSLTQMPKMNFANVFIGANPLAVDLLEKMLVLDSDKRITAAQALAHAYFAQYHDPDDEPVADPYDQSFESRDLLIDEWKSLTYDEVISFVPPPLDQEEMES
Sequence of Rho-associated protein kinase 1 (Homo sapiens) (Q13464 2-1354 limits assumed): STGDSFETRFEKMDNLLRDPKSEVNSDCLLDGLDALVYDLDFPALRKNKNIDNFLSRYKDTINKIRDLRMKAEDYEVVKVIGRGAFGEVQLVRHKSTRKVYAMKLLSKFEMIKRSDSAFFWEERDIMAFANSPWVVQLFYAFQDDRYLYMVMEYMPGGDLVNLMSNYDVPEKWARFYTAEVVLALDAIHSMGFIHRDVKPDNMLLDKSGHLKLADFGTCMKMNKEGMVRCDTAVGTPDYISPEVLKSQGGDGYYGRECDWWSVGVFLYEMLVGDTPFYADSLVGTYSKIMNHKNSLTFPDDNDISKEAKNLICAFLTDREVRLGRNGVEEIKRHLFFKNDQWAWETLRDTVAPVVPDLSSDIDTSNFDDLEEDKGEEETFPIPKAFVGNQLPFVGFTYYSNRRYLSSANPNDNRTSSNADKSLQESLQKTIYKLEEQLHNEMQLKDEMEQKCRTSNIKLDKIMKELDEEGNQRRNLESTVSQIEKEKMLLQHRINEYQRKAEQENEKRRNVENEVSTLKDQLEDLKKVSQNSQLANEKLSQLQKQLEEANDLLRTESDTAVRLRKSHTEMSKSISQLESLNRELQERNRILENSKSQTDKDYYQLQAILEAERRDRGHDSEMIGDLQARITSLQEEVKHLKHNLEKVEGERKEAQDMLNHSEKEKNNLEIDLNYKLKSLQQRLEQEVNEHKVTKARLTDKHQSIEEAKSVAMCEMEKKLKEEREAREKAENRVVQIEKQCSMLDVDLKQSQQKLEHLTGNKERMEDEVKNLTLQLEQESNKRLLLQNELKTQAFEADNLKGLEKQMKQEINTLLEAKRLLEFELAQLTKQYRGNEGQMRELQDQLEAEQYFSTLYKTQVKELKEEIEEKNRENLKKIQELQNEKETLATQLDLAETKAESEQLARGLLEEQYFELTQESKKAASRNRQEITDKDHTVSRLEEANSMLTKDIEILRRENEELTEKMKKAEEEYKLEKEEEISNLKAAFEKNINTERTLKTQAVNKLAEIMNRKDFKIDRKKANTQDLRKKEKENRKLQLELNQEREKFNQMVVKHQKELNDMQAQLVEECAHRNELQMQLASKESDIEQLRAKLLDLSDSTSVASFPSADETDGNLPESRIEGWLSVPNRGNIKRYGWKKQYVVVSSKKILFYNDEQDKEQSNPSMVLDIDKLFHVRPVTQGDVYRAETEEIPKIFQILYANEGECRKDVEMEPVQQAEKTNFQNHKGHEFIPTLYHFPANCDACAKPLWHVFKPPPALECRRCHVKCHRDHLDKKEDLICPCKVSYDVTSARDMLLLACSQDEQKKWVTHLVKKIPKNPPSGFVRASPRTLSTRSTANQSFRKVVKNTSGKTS
Sequence of Serine/threonine-protein kinase Chk1 (Homo sapiens) (O14757 whole entry): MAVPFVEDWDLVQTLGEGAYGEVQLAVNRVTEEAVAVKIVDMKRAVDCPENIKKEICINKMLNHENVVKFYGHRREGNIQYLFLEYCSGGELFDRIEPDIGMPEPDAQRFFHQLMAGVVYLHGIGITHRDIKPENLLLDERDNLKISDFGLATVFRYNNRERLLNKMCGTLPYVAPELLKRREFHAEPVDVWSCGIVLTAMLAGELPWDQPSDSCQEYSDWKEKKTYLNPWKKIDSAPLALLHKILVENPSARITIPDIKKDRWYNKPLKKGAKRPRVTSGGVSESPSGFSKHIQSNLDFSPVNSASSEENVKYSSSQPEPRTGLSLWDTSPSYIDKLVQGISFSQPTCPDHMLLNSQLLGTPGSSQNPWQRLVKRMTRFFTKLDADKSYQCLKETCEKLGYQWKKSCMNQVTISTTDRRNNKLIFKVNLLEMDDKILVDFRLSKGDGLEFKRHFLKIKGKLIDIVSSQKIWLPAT

`CN1CCN(C(=O)C(C)(C)c2ccc(C(=O)Nc3cn4cc(-c5ccncc5)ccc4n3)cc2)CC1` [T3-CLK] gave an inhibition [1] of 4%, an Activity [2] of 18.4% and an inhibition [3] of 38%. For the same compound, the Activity [4] was 45.5%, the inhibition [5] was 47% and the inhibition [6] was -6%. It also gave an inhibition [7] of 4%, an inhibition [8] of -3% and an inhibition [9] of -1%. It also gave an inhibition [10] of -2%, an Activity [11] of 24% and an inhibition [12] of 7%. The inhibition [13] was 11%, the Activity [14] was 4.32% and the remaining at 48 h, 5.3 µM [15] was 98.7%. For the same compound, the inhibition [16] was 14%, the inhibition [17] was 6% and the Activity [18] was 8.13%. The inhibition [19] was 5%, the Activity [20] was 30.5% and the viability at 5 µM [21] was 86.6%. For the same compound, the inhibition [22] was 2%, the Activity [23] was 18.4% and the inhibition [24] was -4%. For the same compound, the inhibition [25] was 4%, the inhibition [26] was -1% and the inhibition [27] was 18%. The inhibition [28] was 9%, the inhibition [29] was -1% and the inhibition [30] was 5%. The inhibition [31] was “Active”, the inhibition [32] was -8% and the remaining at 6 h, 5.44 µM [33] was 98.9%.
